# Reference: article PMC8113459, “Selective inhibition of cullin 3 neddylation through covalent targeting DCN1 protects mice from acetaminophen-induced liver toxicity” (Nature Communications, 2021)
# Where “and” joins values, the source holds several entries; their conditions need not be identical. Equal entries are not always repeated.
# Assays:
# [1] = test system: neddylation of cullin 3; experiment: Western blot, cullin 3 neddylation in THLE2 liver cells; format: cell-based, human
# Experimental: Western blotting was performed as described previously. Treated cells were lysed by RIPA buffer supplemented with protease inhibitor. The expression level of indicated proteins was examined by immunoblotting analysis and GAPDH was used as the loading control. Antibodies were purchased commercially: cullin 1 (sc-17775, 1:500 dilution) and cullin 2 (sc-166506, 1:500 dilution) from Santa Cruz Biotech (Santa Cruz, CA); cullin 4A (PA5-14542, 1:1000 dilution), cullin 4B (PA5-50647, 1:1000 dilution), and DCN3 (DCUN1D3, PA5-44000, 1:1000 dilution) from Thermo Fisher Scientific (Wayne, MI); cullin 3 (2759, 1:1000), NRF2 (12721, 1:1000 dilution), HO-1 (70081, 1:1000 dilution), and Bim (2819, 1:1000 dilution) from Cell Signaling Technology (Boston, MA); DCN1 (GWB-E3D700, 1:1000 dilution) from GenWay Biotech (San Diego, CA); and cullin 5 (A302-173A, 1:500 dilution) from Bethyl Labs (Montgomery, TX). Results are representative of two independent experiments.
# [2] = test system: mice; experiment: 14-day toxicity study in mice; format: in vivo, mouse; conditions: for whole animal: body weight of individual male mouse, in g (unit assumed)
# Experimental: We evaluated DI-1859 for its potential toxicity in immunocompetent mice with daily, 50 mg/kg, intraperitoneal (IP) dosing for 14 consecutive days (Supplementary Table 3).
# Supplementary Table 3. Overview Toxicity Study design DI-1859 study.
# Group # # of Mice Drug Vol./ Test Article Treatment Diluent
# (male/female) Route mouse dose Schedule
# [3] = Clin Chem, individual male mouse, 50 mg/kg, 14 day, vehicle 20% PCP, listed as DI-1589, 50 mg/kg, in U/L (unit assumed)
# [4] = Hemavet Values, individual male mouse, 50 mg/kg, 14 day, vehicle 20% PCP, listed as DI-1589, 50 mg/kg
# [5] = mice, 50 mg/kg IP daily for 14 days
# [6] = mice, 50 mg/kg IP qD(1-14), mean ± s.d., n=5
smiles,measurement,setting,value
C=C(CN(C)C)C(=O)NC[C@@H](NC(=O)[C@H](Cc1nc2ccc(C(C)C)cc2s1)NC(=O)CC)C1CCCCC1 [DI-1859],times more potent than MLN4924 in inhibition of the neddylation of cullin 3,[1],~ 30 times
same,% wt change (average),"[2]; 50 mg/kg IP qD(1-14), Treat Day 2",-3.1%
same,% wt change (average),"[2]; 50 mg/kg IP qD(1-14), Treat Day 3",-3.0%
same,ave. wgt. (mouse body weight),"[2]; 50 mg/kg IP qD(1-14), Treat Day 3, n=5",25.5 gm
same,% wt change (average),"[2]; 50 mg/kg IP qD(1-14), Treat Day 4",-3.1%
same,ave. wgt. (mouse body weight),"[2]; 50 mg/kg IP qD(1-14), Treat Day 4, n=5",25.5 gm
same,% wt change (average),"[2]; 50 mg/kg IP qD(1-14), Treat Day 5",-0.9%
same,ave. wgt. (mouse body weight),"[2]; 50 mg/kg IP qD(1-14), Treat Day 5, n=5",26.0 gm
same,% wt change (average),"[2]; 50 mg/kg IP qD(1-14), Treat Day 6",-1.3%
same,ave. wgt. (mouse body weight),"[2]; 50 mg/kg IP qD(1-14), Treat Day 6, n=5",25.9 gm
same,% wt change (average),"[2]; 50 mg/kg IP qD(1-14), Treat Day 7",-1.6%
same,ave. wgt. (mouse body weight),"[2]; 50 mg/kg IP qD(1-14), Treat Day 7, n=5",25.8 gm
same,% wt change (average),"[2]; 50 mg/kg IP qD(1-14), Treat Day 8",-2.1%
same,ave. wgt. (mouse body weight),"[2]; 50 mg/kg IP qD(1-14), Treat Day 8, n=5",25.7 gm
same,% wt change (average),"[2]; 50 mg/kg IP qD(1-14), Treat Day 9",-1.9%
same,ave. wgt. (mouse body weight),"[2]; 50 mg/kg IP qD(1-14), Treat Day 9, n=5",25.8 gm
same,% wt change (average),"[2]; 50 mg/kg IP qD(1-14), Treat Day 10",-0.8%
same,ave. wgt. (mouse body weight),"[2]; 50 mg/kg IP qD(1-14), Treat Day 10, n=5",26.0 gm
same,% wt change (average),"[2]; 50 mg/kg IP qD(1-14), Treat Day 11",-3.6%
same,ave. wgt. (mouse body weight),"[2]; 50 mg/kg IP qD(1-14), Treat Day 11, n=5",25.3 gm
same,% wt change (average),"[2]; 50 mg/kg IP qD(1-14), Treat Day 12",-2.5%
same,ave. wgt. (mouse body weight),"[2]; 50 mg/kg IP qD(1-14), Treat Day 12, n=5",25.6 gm
same,% wt change (average),"[2]; 50 mg/kg IP qD(1-14), Treat Day 13",-2.7%
same,ave. wgt. (mouse body weight),"[2]; 50 mg/kg IP qD(1-14), Treat Day 13, n=5",25.6 gm
same,% wt change (average),"[2]; 50 mg/kg IP qD(1-14), Treat Day 14",-4.9%
same,ave. wgt. (mouse body weight),"[2]; 50 mg/kg IP qD(1-14), Treat Day 14, n=5",25.0 gm
same,ALT,[2]; [3],34 and 26 and 24 and 31
same,AST,[2]; [3],57 and 46 and 61 and 55 and 35
same,PDW,"[2]; Hemavet Values, individual male mouse, 50 mg/kg, 14 day, vehicle 20% PCP",0%
same,BA#,[2]; [4],0.01 K/uL and 0.09 K/uL and 0.05 K/uL and 0.13 K/uL
same,BA%,[2]; [4],0.11% and 0.74% and 1.42% and 0.22% and 1.34%
same,EO#,[2]; [4],0.05 K/uL and 0.22 K/uL and 0.08 K/uL and 0.02 K/uL and 0.52 K/uL
same,EO%,[2]; [4],0.65% and 1.86% and 2.37% and 0.68% and 5.39%
same,HB,[2]; [4],12.9 g/dL and 12.5 g/dL and 10.2 g/dL and 11.4 g/dL and 11.5 g/dL
same,HCT,[2]; [4],37.7% and 38.6% and 31.1% and 36.4% and 34.1%
same,LY#,[2]; [4],5.23 K/uL and 7.93 K/uL and 2.4 K/uL and 1.63 K/uL and 5.65 K/uL
same,LY%,[2]; [4],69.39% and 68.59% and 72.26% and 71.36% and 58.57%
same,MCH,[2]; [4],14.5 pg and 13.7 pg and 14.3 pg
same,MCHC,[2]; [4],34.2 g/dL and 32.4 g/dL and 32.8 g/dL and 31.3 g/dL and 33.7 g/dL
same,MCV,[2]; [4],42.5 fL and 42.4 fL and 41.9 fL and 43.7 fL
same,MO#,[2]; [4],0.42 K/uL and 0.63 K/uL and 0.21 K/uL and 0.22 K/uL
same,MO%,[2]; [4],5.58% and 5.49% and 6.31% and 9.5% and 6.52%
same,MPV,[2]; [4],4.9 fL and 4.7 fL and 5.2 fL and 5.7 fL and 4.8 fL
same,NE#,[2]; [4],1.83 K/uL and 2.69 K/uL and 0.59 K/uL and 0.42 K/uL and 2.72 K/uL
same,NE%,[2]; [4],24.26% and 23.31% and 17.63% and 18.24% and 28.19%
same,PLT,[2]; [4],900 K/uL and 866 K/uL and 228 K/uL and 177 K/uL and 757 K/uL
same,RBC,[2]; [4],8.88 M/uL and 9.11 M/uL and 7.43 M/uL and 8.33 M/uL and 8.03 M/uL
same,RDW,[2]; [4],17.1% and 16.5% and 17.2% and 17.7%
same,WBC,[2]; [4],7.54 K/uL and 11.56 K/uL and 3.32 K/uL and 2.28 K/uL and 9.64 K/uL
same,whole animal,"[2]; 50 mg/kg, 14 day, vehicle 20% PCP",24.600
same,whole animal,"[2]; 50 mg/kg, 14 day, vehicle 20% PCP, listed as DI-1589, 50 mg/kg",25.300 and 25.200 and 26.400 and 27.400
same,alterations in hematologic parameters,[2]; [5],no meaningful alterations
same,changes in body weights or organ weights,[2]; [5],no changes
same,tolerability,[2]; [5],well tolerated
same,"Absolute organ weight, Adrenal glands (paired)",[2]; [6],0.006 ± 0.002 g
same,"Absolute organ weight, Brain",[2]; [6],0.454 ± 0.009 g
same,"Absolute organ weight, Epididymis (paired)",[2]; [6],0.089 ± 0.011 g
same,"Absolute organ weight, Heart",[2]; [6],0.117 ± 0.009 g
same,"Absolute organ weight, L kidney",[2]; [6],0.182 ± 0.013 g
same,"Absolute organ weight, Liver",[2]; [6],1.596 ± 0.098 g
same,"Absolute organ weight, R kidney",[2]; [6],0.200 ± 0.007 g
same,"Absolute organ weight, Spleen",[2]; [6],0.073 ± 0.013 g
same,"Absolute organ weight, Testes (paired)",[2]; [6],0.222 ± 0.017 g
same,"Absolute organ weight, Thymus",[2]; [6],0.040 ± 0.027 g
same,Body weights,[2]; [6],25.78 ± 1.11 g
same,Hematocrit,[2]; [6],35.58 ± 3.02%
same,Hemoglobin,[2]; [6],11.70 ± 1.06 g/dL
same,MCH,[2]; [6],13.98 ± 0.39 pg
same,MCHC,[2]; [6],32.88 ± 1.13 g/dL
same,MCV,[2]; [6],42.60 ± 0.66 fL
same,MPV,[2]; [6],5.06 ± 0.40 fL
